Literature values in US20010014694A1, “Substituted phenyl compounds and derivatives thereof that modulate the activity of endothelin” (priority 1996, published 2001).
pEC50, pIC50: −log10 of the molar value. Like-named read-outs stand apart in the source and are kept apart here.

Tests used:
ETB receptors = conditions: tissues in which ETB receptors predominate; read-out: fails to inhibit binding to receptors at concentrations up to; cited from earlier work
ETA receptor = conditions: read-out: IC50, inhibition of 125I-labelled endothelin-1 binding, cited from earlier work
[1] = system: cardiovascular tissues (ETA receptors predominate); conditions: cited from earlier work
isolated vascular strips = conditions: read-out: EC50, contractile agent; cited from earlier work
[2] = system: non-cardiovascular tissues, such as kidney, adrenal gland, and cerebellum (ETB receptors predominate); conditions: cited from earlier work

Substance	pIC50 (ETB receptors)	pIC50 (ETA receptor; aortic smooth muscle)	pIC50 (ETA receptor; cultured aortic smooth muscle cells)	pIC50 (ETA receptor; ventricle membranes)	potency of inhibition of 125I-labelled endothelin-1 binding relative to endothelin-3 [1]	pEC50 (isolated vascular strips)	extent of inhibition of 125I-labelled endothelin-1 binding [2]
cyclo(D-Glu-L-Ala-allo-D-Ile-L-Leu-D-Trp) [BE-18257B]	< 4.00	5.85	6.30	6.10			
endothelin-1: endothelium-derived potent twenty-one amino acid peptide vasoconstrictor, one of three endothelin isopeptides					forty to seven hundred times more potently	9.40	to the same extent
